Measured values: patent publication US20240101544A1, “INHIBITORS OF QPCTL AND QPCT” (priority 2022, published 2024)

Assays:
QPCT (rhQPCT) = QPCT (rhQPCT) (Homo sapiens (Human), UniProt Q16769); assay: QPCT Enzymatic Activity Assay (coupled-enzyme fluorescent assay, H-Gln-AMC substrate); format: biochemical; conditions: rhQPCT 10-12 nM, 10 μM H-Gln-AMC; read-out: QPCT Inhibition IC50
Experimental: QPCT activity was measured in a coupled-enzyme assay using the QPCT substrate, glutamine-7-amido-4-methylcoumarin (H-Gln-AMC, Bachem), which is converted to pyroglutamyl-AMC by QPCT. Pyroglutamyl-AMC is then converted to the fluorescent molecule, AMC, by incubation with the human enzyme pyroglutamyl peptidase-1 (PGPEP-1). […] Following the incubation, H-Gln-AMC substrate was diluted in assay buffer and added to each well for a final concentration of 10 μM. The reaction was incubated for 60 min at 37° C., before stopping it by boiling at 100° C. for 5 minutes and cooling the plate at 4° C. for 3 minutes. […] Following incubation, the fluorescence was measured with a plate reader using excitation at 380 nm and emission at 460 nm. […] Concentration-response-curves and IC50 values (Table 17) were generated using Collaborative Drug Discovery software.

QPCTL = QPCTL (Homo sapiens (Human), UniProt Q9NXS2); assay: QPCTL Enzymatic Activity Assay (coupled-enzyme fluorescent assay, H-Gln-AMC substrate); format: biochemical; conditions: recombinant truncated human QPCTL 10-12 nM, 10 μM H-Gln-AMC; read-out: QPCTL Inhibition IC50
Chain of QPCTL (Q9NXS2 53-382): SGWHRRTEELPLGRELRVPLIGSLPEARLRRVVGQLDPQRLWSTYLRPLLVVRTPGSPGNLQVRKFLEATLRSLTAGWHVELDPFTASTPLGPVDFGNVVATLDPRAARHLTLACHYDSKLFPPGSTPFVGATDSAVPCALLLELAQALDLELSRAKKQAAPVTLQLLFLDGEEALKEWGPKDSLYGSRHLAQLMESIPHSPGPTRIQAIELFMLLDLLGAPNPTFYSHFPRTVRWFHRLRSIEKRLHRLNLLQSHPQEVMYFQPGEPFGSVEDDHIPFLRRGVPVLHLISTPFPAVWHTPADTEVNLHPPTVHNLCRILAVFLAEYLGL
Experimental: Protein expression was induced when the bacterial culture OD600 was approximately 0.7 using 1 mM IPTG and the cells incubated at 20° C. for approximately 16 hours. The QPCTL was purified using nickel column purification, digested by TEV, followed by a second nickel column purification. The protein was further purified by size-exclusion chromatography using a Superdex™ 75 column. The final protein was concentrated using ultrafiltration tubes at a molecular weight cutoff of 10 kilodaltons and stored frozen in protein buffer (25 mM Tris pH 8.3, 150 mM NaCl).
QPCTL activity was measured in a coupled-enzyme assay using the QPCTL substrate, glutamine-7-amido-4-methylcoumarin (H-Gln-AMC, Bachem), which is converted to pyroglutamyl-AMC by QPCTL. Pyroglutamyl-AMC is then converted to the fluorescent molecule, AMC, by incubation with the human enzyme pyroglutamyl peptidase-1. […] Final concentrations of DMSO and test compounds were 2% and 30-100 μM, respectively. Following the incubation, H-Gln-AMC substrate was diluted in assay buffer and added to each well for a final concentration of 10 μM. The reaction was incubated for 60 min at 37° C., before stopping it by boiling at 100° C. for 5 minutes and cooling the plate at 4° C. for 3 minutes. […] Following incubation, the fluorescence was measured with a plate reader using excitation at 380 nm and emission at 460 nm. […] Concentration-response-curves and IC50 values (Table 17) were generated using curve fit software.

Chain of QPCT (rhQPCT) (Q16769 29-361): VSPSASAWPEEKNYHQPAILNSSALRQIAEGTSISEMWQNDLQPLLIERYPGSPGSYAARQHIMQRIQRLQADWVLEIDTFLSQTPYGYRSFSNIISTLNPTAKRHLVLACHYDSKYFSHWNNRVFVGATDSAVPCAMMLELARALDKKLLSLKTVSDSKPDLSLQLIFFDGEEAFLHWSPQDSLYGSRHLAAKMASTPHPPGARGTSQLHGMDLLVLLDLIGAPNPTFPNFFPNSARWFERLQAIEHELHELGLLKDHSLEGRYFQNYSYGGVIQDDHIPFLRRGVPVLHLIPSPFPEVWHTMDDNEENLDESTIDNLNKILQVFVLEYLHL

Molecule	IC50 (QPCT (rhQPCT))	IC50 (QPCTL)
6′-fluoro-3-(4-(1-methyl-1H-imidazol-5-yl)piperidin-1-yl)-[2,3′-bipyridine]-4-carbonitrile [Example 134]	< 100 nM	< 100 nM
Cn1cnnc1C1CCN(c2c(-c3ccc(F)nc3)ccc(OC3CCOC3)c2C#N)CC1 (single isomer, unassigned) [Example 89, 3-(6-fluoropyridin-3-yl)-2-(4-(4-methyl-4H-1,2,4-triazol-3-yl)piperidin-1-yl)-6-((tetrahydrofuran-3-yl)oxy)benzonitrile]	< 100 nM	< 100 nM
Cn1cnnc1C1CCN(c2c(C#N)cccc2-c2cnccn2)CC1 [Example 5, 2-[4-(4-methyl-4H-1,2,4-triazol-3-yl)piperidin-1-yl]-3-(pyrazin-2-yl)benzonitrile]	100 to 1000 nM	100 to 1000 nM
Cn1cnnc1C1CCN(c2c(C#N)cccc2-c2cnccc2O)CC1 [Example 7, 3-(4-hydroxypyridin-3-yl)-2-[4-(4-methyl-4H-1,2,4-triazol-3-yl)piperidin-1-yl]benzonitrile]	1000 to 10000 nM	1000 to 10000 nM
COc1ccncc1-c1cccc(C#N)c1N1CCC(n2ccnc2)CC1 [Example 13, 2-[4-(1H-imidazol-1-yl)piperidin-1-yl]-3-(4-methoxypyridin-3-yl)benzonitrile]	100 to 1000 nM	1000 to 10000 nM
COc1ccncc1-c1cccc(C#N)c1N1CCC(c2cncs2)CC1 [Example 14, 3-(4-methoxypyridin-3-yl)-2-[4-(1,3-thiazol-5-yl)piperidin-1-yl]benzonitrile]	100 to 1000 nM	100 to 1000 nM
COc1ccncc1-c1cccc(C#N)c1N1CCC(c2cnc(N)s2)CC1 [Example 17, 2-[4-(2-amino-1,3-thiazol-5-yl)piperidin-1-yl]-3-(4-methoxypyridin-3-yl)benzonitrile]	100 to 1000 nM	100 to 1000 nM
COc1ccncc1-c1cccc(C#N)c1N1CCC(n2cnnc2C)CC1 [Example 18, 3-(4-methoxypyridin-3-yl)-2-[4-(3-methyl-4H-1,2,4-triazol-4-yl)piperidin-1-yl]benzonitrile]	> 10000 nM	> 10000 nM
Cn1cnnc1C1CCN(c2c(C#N)cccc2-c2cncc3c2OCCN3)CC1 [Example 20, 2-[4-(4-methyl-4H-1,2,4-triazol-3-yl)piperidin-1-yl]-3-{2H,3H,4H-pyrido[4,3-b][1,4]oxazin-8-yl}benzonitrile]	< 100 nM	100 to 1000 nM
COc1ccncc1-c1cccc(C#N)c1N1CCC(c2nnc(N)s2)CC1 [Example 21, 2-[4-(5-amino-1,3,4-thiadiazol-2-yl)piperidin-1-yl]-3-(4-methoxypyridin-3-yl)benzonitrile]	100 to 1000 nM	100 to 1000 nM
CN1CCOc2c(-c3cccc(C#N)c3N3CCC(c4nncn4C)CC3)cncc21 [Example 22, 3-{4-methyl-2H,3H,4H-pyrido[4,3-b][1,4]oxazin-8-yl}-2-[4-(4-methyl-4H-1,2,4-triazol-3-yl)piperidin-1-yl]benzonitrile]	100 to 1000 nM	100 to 1000 nM
Cn1cnnc1C1CCN(c2c(C#N)cccc2-c2cncc3c2OCCN3CCO)CC1 [Example 23, 3-[4-(2-hydroxyethyl)-2H,3H,4H-pyrido[4,3-b][1,4]oxazin-8-yl]-2-[4-(4-methyl-4H-1,2,4-triazol-3-yl)piperidin-1-yl]benzonitrile]	100 to 1000 nM	100 to 1000 nM
Cn1cnnc1C1CCN(c2c(C#N)cccc2-c2ccc(C(F)(F)F)nc2)CC1 [Example 29, 2-[4-(4-methyl-4H-1,2,4-triazol-3-yl)piperidin-1-yl]-3-[6-(trifluoromethyl)pyridin-3-yl]benzonitrile]	100 to 1000 nM	100 to 1000 nM
COc1ccncc1-c1cccc(C#N)c1N1CCC(c2cncn2C)CC1 [Example 31, 3-(4-methoxypyridin-3-yl)-2-[4-(1-methyl-1H-imidazol-5-yl)piperidin-1-yl]benzonitrile]	< 100 nM	< 100 nM
COc1ccncc1-c1ccc(-c2ccccc2)c(C#N)c1N1CCC(c2nncn2C)CC1 [Example 32, 4-(4-methoxypyridin-3-yl)-3-[4-(4-methyl-4H-1,2,4-triazol-3-yl)piperidin-1-yl]-[1,1′-biphenyl]-2-carbonitrile]	< 100 nM	< 100 nM
Cn1cnnc1C1CCN(c2c(C#N)cccc2-c2ccc(Cl)nc2)CC1 [Example 40, 3-(6-chloropyridin-3-yl)-2-[4-(4-methyl-4H-1,2,4-triazol-3-yl)piperidin-1-yl]benzonitrile]	100 to 1000 nM	< 100 nM
N#Cc1cccc(-c2ccc(F)nc2)c1N1CCC(c2nnc[nH]2)CC1 [Example 49, 2-(4-(4H-1,2,4-triazol-3-yl)piperidin-1-yl)-3-(6-fluoropyridin-3-yl)benzonitrile]	100 to 1000 nM	100 to 1000 nM
Cc1ncn(-c2ccc(-c3ccc(F)nc3)c(N3CCC(c4nncn4C)CC3)c2C#N)n1 [Example 50, 3-(6-fluoropyridin-3-yl)-6-(3-methyl-1H-1,2,4-triazol-1-yl)-2-(4-(4-methyl-4H-1,2,4-triazol-3-yl)piperidin-1-yl)benzonitrile]	< 100 nM	< 100 nM
Cn1cnnc1C1CCN(c2c(C#N)cccc2-c2cnnc(O)c2)CC1 [Example 52, 3-(6-hydroxypyridazin-4-yl)-2-(4-(4-methyl-4H-1,2,4-triazol-3-yl)piperidin-1-yl)benzonitrile]	< 100 nM	< 100 nM
Cc1cc(-c2c(F)ccc(C#N)c2N2CCC(c3nncn3C)CC2)cnc1F [Example 53, 4-fluoro-3-(6-fluoro-5-methylpyridin-3-yl)-2-(4-(4-methyl-4H-1,2,4-triazol-3-yl)piperidin-1-yl)benzonitrile]	< 100 nM	< 100 nM
[2H]C([2H])([2H])n1cnnc1C1CCN(c2c(-c3ccc(F)nc3)ccc(-c3cnn(C)c3)c2C#N)CC1 [Example 54, 3-(6-fluoropyridin-3-yl)-6-(1-methyl-1H-pyrazol-4-yl)-2-(4-(4-(methyl-d3)-4H-1,2,4-triazol-3-yl)piperidin-1-yl)benzonitrile]	< 100 nM	< 100 nM
[2H]C([2H])([2H])n1cnnc1C1CCN(c2c(-c3ccnnc3)ccc(-c3cnn(C)c3)c2C#N)CC1 [Example 55, 6-(1-methyl-1H-pyrazol-4-yl)-2-(4-(4-(methyl-d3)-4H-1,2,4-triazol-3-yl)piperidin-1-yl)-3-(pyridazin-4-yl)benzonitrile]	< 100 nM	< 100 nM
[2H]C([2H])([2H])n1cnnc1C1CCN(c2c(-c3ccc(F)nc3)ccc(Cl)c2C#N)CC1 [Example 56, 6-chloro-3-(6-fluoropyridin-3-yl)-2-(4-(4-(methyl-d3)-4H-1,2,4-triazol-3-yl)piperidin-1-yl)benzonitrile]	< 100 nM	< 100 nM
[2H]C([2H])([2H])Oc1ccc(-c2ccc(F)nc2)c(N2CCC(c3nncn3C)CC2)c1C#N [Example 57, 3-(6-fluoropyridin-3-yl)-6-(methoxy-d3)-2-(4-(4-methyl-4H-1,2,4-triazol-3-yl)piperidin-1-yl)benzonitrile]	< 100 nM	< 100 nM
CN(C)CCOc1ccc(-c2ccnnc2)c(N2CCC(c3nncn3C)CC2)c1C#N [Example 58, 6-(2-(dimethylamino)ethoxy)-2-(4-(4-methyl-4H-1,2,4-triazol-3-yl)piperidin-1-yl)-3-(pyridazin-4-yl)benzonitrile]	< 100 nM	< 100 nM
